Experiment [1] has as its system pancreatic carcinoma. The settings on record: second-line, cited from earlier work.
The subject of experiment [2] is locally advanced and metastatic pancreatic carcinoma. The settings on record: first-line therapy, n = 171 per arm; cited from earlier work.
Experiment [3] relates to pancreatic carcinoma. Description: Second-line therapy following progression on FOLFIRINOX
Type of experiment: in vivo, human. The settings on record: Overall (mean). An excerpt:
Overall Survival (OS) increased from 6.8 months with Gemcitabine to 11.1 months with FOLFIRINOX (p<0.001). However, the Complete Response Rate (CR) was only 0.6%.

Experiment [4] has as its system TME of metastatic colorectal carcinoma. The settings on record: 9 patients vs. historical controls. The source says: Colorectal carcinoma was used as a GI model for pancreatic carcinoma in order to obtain biopsy specimens of the TME. We used […]® to determine if there is improvement in the Teff/Treg ratio in the TME secondary to the […]® induction of desirable chemokines, such as CXCL 10 (Teff-attractant), in the TME, while decreasing the unfavorable chemokines, such as CCL22 (C-C Motif Chemokine Ligand 22; Treg-attractant), thereby increasing the Teff/Treg ratio in the TME.
See, Example Section below.

For a further experiment, the system named is B16 melanoma tumors. The note with it: n = 10; for Number of Partial Responses (PR) / Number of Complete Responses (CR): Day 30; for Number of Complete Responses (CR): RECIST v1.1.
The test system of experiment [5] is renal cell carcinoma (786-0) xenografts. Description: Renal cell carcinoma (786-0) xenografts in nude mice. Type of experiment: in vivo. The settings on record: for tumor growth: FIG. 7, vs untreated controls.
The test system of a further experiment is pancreatic tumors. The note with it: n = 8 each.
The test system of experiment [6] is human bladder tumor xenografts. Description: Human bladder tumor xenografts in nude mice. Format: in vivo. A general note: In xenograft studies the graft and the host belong to different species.
The subject of experiment [7] is renal cell carcinoma (786-0) xenografts. The note with it: Hubbell, 1990, cited from earlier work.

Like-named read-outs stand apart in the source and are kept apart here. Marks after values point to notes of the source that are not given here.

Method for B16 melanoma tumors: Rintatolimod together with anti-PD-L1 antibodies were tested for anti-tumor activity against established subcutaneous B16 melanoma tumors in C57BL/6 mice. Mice (10 animals per group) were inoculated with 0.4×10E6 B16-F10 tumor cells in their shaved rear flanks. Seven days later (when tumors reached 0.3 to 0.5 cm in their largest diameter), mice were randomized for tumor sizes, and individually tagged and were allocated to the following six treatment groups: • No treatment (negative controls) • Rintatolimod alone 100 μg/dose 4× • Rintatolimod alone 250 μg/dose 4× • Anti-PD-L1 mAb alone • Rintatolimod 100 μg/dose 4× plus anti-PD-L1 mAb • Rintatolimod 250 μg/dose 4× plus anti-PD-L1 mAb
Rintatolimod was injected intravenously at 100 or 250 micrograms/dose and was repeated 4 times, 5 days apart. Anti-PD-L1 mAb (clone 10F.9G2, BioXCell) was administered intraperitoneally on Days 1 and 3 after each rintatolimod injection at a 200 microgram/dose. Tumors were measured 3 times per week using a set of calipers, taking measurement of 2 opposing diameters and were recorded as tumor areas.
Results were presented as tumor sizes for individual mice throughout the time of therapy, average tumor size in each group and survival up to Day 30 (time to euthanasia).
® and anti-PD-L1 antibodies were tested for anti-tumor activity against established subcutaneous B16 melanoma tumors in C57BL/6 mice. Briefly, mice (10 animals per group) were inoculated with 0.4×10E6 (i.e., 400,000) B16-F10 tumor cells in their shaved rear flanks. Seven days later, mice were randomized to six treatment groups as follows: (Group 1) No treatment (negative controls); (Group 2) […] ® alone 100 μg/dose 4×; (Group 3) […] ® alone 250 μg/dose 4×; (Group 4) Anti-PD-L1 mAb alone; (Group 5) […] ® 100 μg/dose 4× plus anti-PD-L1 mAb; (Group 6) […] ® 250 μg/dose 4× plus anti-PD-L1 mAb. mAb refers to monoclonal antibody.
® was injected IV at 100 or 250 μg/dose 4 times, 5 days apart. Anti-PD-L1 mAb was administered IP on Days 1 and 3 after each […] ® dose at 200 μg/dose. Tumors were measured 3 times per week using calipers, measuring 2 opposing diameters. […] Results were presented as tumor sizes for individual mice throughout time of therapy up to Day 30.
Method for pancreatic tumors: Please note that all four cohorts (control, […] ®, anti-PD-L1, […] ®+anti-PD-L1) were studied in the same parallel experiment.
In this experiment, sub-therapeutic doses of […] ® were administered in mouse models of pancreatic cancer.

On to `Nc1ccn([C@@H]2O[C@H](CO)[C@@H](O)C2(F)F)c(=O)n1` [Gemcitabine], for which the “Progression Free Survival (PFS)” value in the experiment with pancreatic carcinoma [1] (Gilabert, et al. 2017, n = 72) is given as 2.5 months; with pancreatic carcinoma [1] (Viaud, et al. 2017, n = 96), 2.1 months; in the experiment on pancreatic carcinoma [1] (da Rocha, et al. 2015, n = 20), 2.0 months; in experiment [2], 3.3 months; with pancreatic carcinoma [3] (weighted average) it was 2.24* months. Moreover, the “Complete Response Rates (CR)” value in the experiment on pancreatic carcinoma [1] (Gilabert, et al. 2017) was 0%; in the experiment on pancreatic carcinoma [1] (Viaud, et al. 2017), 0%; with pancreatic carcinoma [1] (da Rocha, et al. 2015), 0%; in the experiment with pancreatic carcinoma [3] (weighted average), 0%*. Further, the “Partial Response Rates (PR)” value with pancreatic carcinoma [1] (Gilabert, et al. 2017) was 5.5%; in the experiment with pancreatic carcinoma [1] (Viaud, et al. 2017) it was 8.3%; in the experiment on pancreatic carcinoma [1] (da Rocha, et al. 2015), 0%; in the experiment with pancreatic carcinoma [3] it was 6.4%. Further, the “Overall Survival (OS)” value was 3.7 months with pancreatic carcinoma [1] (Viaud, et al. 2017, n = 96); 5.7 months with pancreatic carcinoma [1] (da Rocha, et al. 2015, n = 20); 6.8 months in [2]; 4.05* months with pancreatic carcinoma [3] (weighted average based on n in each study). Further, the “Complete Response Rates (CR), %” value in [2] is listed as 0(0) %. Also, the “Partial Response Rates (PR), %” value in experiment [2] is 9.4%.
For the molecule “polyriboinosinic:polyribocytidylic(12:1)uridylic acid”, the “ratio of Teff/Treg markers in the TME” value in [4] was “improved ratios”. Also, in the experiment on B16 melanoma tumors (rintatolimod 100 μg/dose 4×), the “Total # Tumor Responses CR + PR” value came out at 0, the “Number of Partial Responses (PR)” value was 0 and the “Number of Complete Responses (CR)” value was 0. Also, in the experiment with B16 melanoma tumors (rintatolimod 250 μg/dose 4×), the “Total # Tumor Responses CR + PR” value turned out to be 0, the “Number of Partial Responses (PR)” value is recorded as 0 and the “Number of Complete Responses (CR)” value came to 0. Further, in experiment [5] (FIG. 8, 100% death rate for untreated controls), the “survival of nude mice” value came out at 100%. Moreover, the tumor growth result in [5] (monotherapy, listed as rintatolimod) is on record as “tumor regression was observed in each mouse”. Moreover, in experiment [5] (monotherapy, listed as tdsRNA), the tumor growth entry was “growth inhibition”. In addition, the “mice free of the residual tumor” value in experiment [5] (monotherapy, 100% of the control group had died) turned out to be 90%. For the same molecule, the “Time to Progression Median” value in the experiment on pancreatic tumors (sub-therapeutic doses, control 33) is 33 days. The “Increased Time to Progression” value in the experiment on pancreatic tumors (versus control) stood at 0 days. For the same molecule, in [6], the “growth of human bladder tumor xenografts” value is listed as “significantly inhibited”. The tumor growth inhibition entry in experiment [7] (p<0.001) is “statistically significant tumor growth inhibition”. The survival entry in experiment [7] (p<0.002) is reported as “increased survival”.

(Values after patent publication US12714723B2, “Compositions and methods for cancer therapy” (AIM ImmunoTech Inc., priority 2018, dated 2026).)
